The target of test [1] is T1, aryl hydrocarbon receptor (Rattus norvegicus, UniProt P41738, Q794H).
T1 construct: The SD-line rat AhR gene-coding region was amplified from the reverse-transcribed sample by means of PCR; V5-His (C-terminal tag of vector pcDNA4/V5-His B); expressed in transfected cells; host or cells: mouse neuroblastoma Neuro2a, transient transfection with LIPOFECTAMINE 2000
T1 sequence (P41738 10-853 Q794H): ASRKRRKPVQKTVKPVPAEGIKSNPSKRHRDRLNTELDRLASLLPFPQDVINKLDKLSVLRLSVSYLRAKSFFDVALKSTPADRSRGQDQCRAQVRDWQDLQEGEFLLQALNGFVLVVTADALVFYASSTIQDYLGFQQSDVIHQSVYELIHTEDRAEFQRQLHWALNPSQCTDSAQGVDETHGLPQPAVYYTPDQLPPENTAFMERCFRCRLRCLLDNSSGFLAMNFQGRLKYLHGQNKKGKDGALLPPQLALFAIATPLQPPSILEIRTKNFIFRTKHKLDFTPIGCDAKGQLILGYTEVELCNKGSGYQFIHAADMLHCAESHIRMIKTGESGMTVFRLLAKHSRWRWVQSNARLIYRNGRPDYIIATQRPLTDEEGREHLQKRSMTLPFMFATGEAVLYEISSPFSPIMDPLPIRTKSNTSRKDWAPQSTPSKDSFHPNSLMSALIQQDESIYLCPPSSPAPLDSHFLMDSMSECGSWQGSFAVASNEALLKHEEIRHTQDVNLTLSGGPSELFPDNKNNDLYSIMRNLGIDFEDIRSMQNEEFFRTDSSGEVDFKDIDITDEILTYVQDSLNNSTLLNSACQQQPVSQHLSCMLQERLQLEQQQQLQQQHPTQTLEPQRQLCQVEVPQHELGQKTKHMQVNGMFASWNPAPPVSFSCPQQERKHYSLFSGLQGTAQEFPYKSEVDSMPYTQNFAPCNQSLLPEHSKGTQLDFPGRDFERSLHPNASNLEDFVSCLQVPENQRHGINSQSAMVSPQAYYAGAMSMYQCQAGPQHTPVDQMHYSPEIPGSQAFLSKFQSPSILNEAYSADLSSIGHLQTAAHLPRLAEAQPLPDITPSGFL
The test can be described thus: Reporter gene (luciferase) assay in Neuro2a cells carrying PGV-THp25 (2.5 kbp TH transcriptional regulatory region) and pcDNA4-rAhR. The note with it: PGV-pTH25-introduced Neuro2a; for expression amount of the reporter gene (increase versus unexposed): 30 hours. The format is cell-based, SD-line rat. From the text: In this Example, the PGV-THp25 prepared in Example 2 was used. Neuro2a was used as the cell.
Two kinds of vectors, pcDNA4-rAhR (Example 1) and pcDNA4/V5-His/lacZ (Invitrogen), were introduced into Neuro2a, together with PGV-THp25. pcDNA4-rAhR was introduced for constitutive expression of the SD-line rat AhR gene (SEQ ID No: 10) in the cell, and pcDNA4/V5-His/lacZ was introduced for normalization of the vector transfection efficiency.
The vectors were introduced into the cell by using LIPOFECTAMINE 2000 (Invitrogen). The cell was cultured on a 24-well plate, and the operation was performed according to the manual of Invitrogen. A total of 0.8 μg of vectors (0.4 μg of PGV-THp25, 0.2 μg of pcDNA4-rAhR, and 0.2 μg of pcDNA4/V5-His/lacZ) suspended in 50 μl of OPTI-MEM medium and 2 μl of LIPOFECTAMINE 2000 suspended in 50 μl of OPTI-MEM medium were mixed, and incubated at room temperature for 20 minutes to form nucleic acid/LIPOFECTAMINE 2000 complex. The obtained suspension containing the complex was added to Neuro2a cell culture, which has been previously cultured overnight in 500 μl of DF1:1 medium (containing 10% fetal calf serum) (0.8×10^5 cells were seeded on previous day), to allow incorporation of the vectors into the cell. The cell was cultured additionally for 24 hours after the transfection, for the purpose of improvement in vector incorporation efficiency and expression of the proteins derived from the introduced vectors.
As the test substance, a solution of dioxin (2,3,7,8-tetrachlorodibenzo-p-dioxine, TCDD) in dimethylsulfoxide (manufactured by Kanto Kagaku Co. Inc.) was used. After the transfection and the additional incubation for 24 hours, the medium was replaced with a fresh medium containing TCDD (at 0, 0.01, 1, or 100 nM), and the cell was cultured additionally for 30 hours. After 30 hours, the medium was removed from the 24-well plate, and the cell was washed with phosphate buffer twice. 100 μl of a protein extraction solution (manufactured by TOYO B-NET) was added to each well, and the cell suspension was stirred gently at room temperature for 15 minutes and then frozen at −80° C. The frozen solution was thawed at room temperature, and the resulting solution was recovered in a tube and diluted ten times with a protein extraction reagent containing 1 mg/ml bovine serum albumin. Luciferase and β-galactosidase activities in the diluted solution were measured, and the expression amount of the reporter gene was calculated as a relative luminescence intensity per 1 ng of β-galactosidase per second (RLU/sec/ng β-galactosidase).

The target in test [2] is T1, aryl hydrocarbon receptor. The test can be described thus: Reporter gene assay in Neuro2a with pTHE60/Luc and pTHE60×3/Luc (SEQ ID No: 4). The format is cell-based, SD-line rat. The note with it: 1 nM and 10 nM TCDD; pTHE60/Luc versus pTHE60×3/Luc. The method, then: In Example 9, the region of SEQ ID No: 4 was used as the TCDD-responsive region in the TH transcriptional regulatory region. The region of SEQ ID No: 4 was amplified by PCR using the region of SEQ ID No: 3 as a template and using the following primers: Forward primer: 5′-[…]-3′ (SEQ ID No: 29); and Reverse primer: 5′-[…]-3′ (SEQ ID No: 30). Pyrobest DNA polymerase was used in the PCR. Recognition sequences for restriction enzymes KpnI (for forward primer) and NheI (for reverse primer) were added to the terminal of the respective primers, for the purpose of facilitating incorporation of the PCR amplified fragment into the vector. The terminal of the region of SEQ ID No: 4 amplified by PCR was phosphorylated with 5′-polynucleotide kinase (Takara Bio Inc.), and then, the regions of SEQ ID No: 4 were ligated in tandem with each other by using a ligation kit. The ligated DNA fragments were digested with restriction enzymes KpnI and NheI, and subjected to agarose gel electrophoresis. DNA fragment consisting of a single copy of the region of SEQ ID No: 4 and DNA fragment consisting of three copies of the regions of SEQ ID No: 4 linked in tandem were excised from the gel based on their molecular weight, and purified with a QIAQUICK Gel Extraction Kit. […]
In general terms: Reporter assays use an easily measured gene product as a stand-in for the process of interest.

`Clc1cc2c(cc1Cl)Oc1cc(Cl)c(Cl)cc1O2` [TCDD, 2,3,7,8-tetrachlorodibenzo-p-dioxine]: the “expression amount of the reporter gene (increase versus unexposed)” value in test [1] (0.01 nM TCDD) is reported as “approximately 1.2 times”; in test [1] (1 nM TCDD), “approximately 1.6 times”; in test [1] (100 nM TCDD) it was “approximately 1.8 times”. In addition, in test [1] (0.01 to 100 nM TCDD), the “expression amount of the reporter gene, dose dependence” value is reported as “increased dose-dependently”. Besides, in test [2], the “activity of the test substance on transcriptional regulation, by number of regions of SEQ ID No: 4” value was “increased according to the increase in the number of the regions incorporated into the vector”.
